Source: US20250059179A1, “Heterocyclic Compounds and Methods of Use” (AMGEN INC., priority 2021, published 2025)
Read-outs that look alike come from different tables or passages of the source. Each block holds one compound with its values, some of them ahead of it.

How the values were obtained:
[1] = target: His-tagged KRAS G12D protein (Homo sapiens, UniProt P01116, G12D); test: KRAS G12D TR-FRET Assay; type: binding; conditions: biotinylated KRPep-2d substrate, 10 μM GDP;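 also: europium anti-His antibody paired with streptavidin-d2 as FRET partners, initial 30 min incubation, then peptide 1 h and detection reagents 1 h, all at room temperature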
[2] = test system: Phosphorylation of ERK1/2 in A-427 cells; test: Phospho-ERK1/2 MSD Assay; type: cell-based; conditions: 2 h compound treatment, read-out: pERK (A427 cells) IC50
Summary of the method: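 ERK1/2 phosphorylation measured by Meso Scale whole-cell lysate assay after A-427 cells were exposed to a titration of compound for 2 h at 37 °C.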

[3] = target: GDP-bound KRAS protein (aa 1-169), containing both G12D and C118A amino acid substitutions (Homo sapiens, UniProt P01116, C118A/G12D); test: KRAS G12D Coupled Nucleotide Exchange Assay; type: biochemical; conditions: 2 h compound pre-incubation; SOS-mediated nucleotide exchange, cRAF AlphaScreen readout;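 also: IC50 obtained by fitting the AlphaScreen signal with a four-parameter logistic curve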
Sequence of GDP-bound KRAS protein (aa 1-169), containing both G12D and C118A amino acid substitutions (P01116 1-169 isoform P01116-2 G12D/C118A): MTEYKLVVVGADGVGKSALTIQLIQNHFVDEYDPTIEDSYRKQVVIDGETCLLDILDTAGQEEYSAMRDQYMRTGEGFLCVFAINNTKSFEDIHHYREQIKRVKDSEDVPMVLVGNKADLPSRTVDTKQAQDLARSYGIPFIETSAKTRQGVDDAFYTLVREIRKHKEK

Sequence of His-tagged KRAS G12D protein (P01116 1-188 isoform P01116-2 G12D): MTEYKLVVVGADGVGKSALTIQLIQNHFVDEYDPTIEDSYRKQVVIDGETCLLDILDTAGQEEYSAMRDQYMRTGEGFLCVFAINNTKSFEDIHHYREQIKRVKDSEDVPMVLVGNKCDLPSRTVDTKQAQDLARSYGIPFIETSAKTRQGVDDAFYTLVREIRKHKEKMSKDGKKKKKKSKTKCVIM

IC50 [1]: 79 nM | IC50 ([2]; Homo sapiens, A-427, 2 h): 2300 nM | Avg 2 h Coupled Exchange IC50 [3]: 37 nM
Structure (SMILES): CN1CCC[C@H]1COc1nc(C2=CCNCC2)c2cc(Cl)c(-c3cccc4sc(N)nc34)c(F)c2n1 [Example 144, 4-(6-chloro-8-fluoro-2-(((S)-1-methylpyrrolidin-2-yl)methoxy)-4-(1,2,3,6-tetrahydropyridin-4-yl)quinazolin-7-yl)benzo[d]thiazol-2-amine]

IC50 [1]: 56 nM | IC50 ([2]; Homo sapiens, A-427, 2 h): 3410 nM | Avg 2 h Coupled Exchange IC50 [3]: 74 nM
Structure (SMILES): CN1CCC[C@H]1COc1nc(C2=CCNC2)c2cc(Cl)c(-c3cccc4sc(N)nc34)c(F)c2n1 [Example 148, 4-(6-chloro-4-(2,5-dihydro-1H-pyrrol-3-yl)-8-fluoro-2-(((S)-1-methylpyrrolidin-2-yl)methoxy)quinazolin-7-yl)benzo[d]thiazol-2-amine]

IC50 [1]: 100 nM | IC50 ([2]; Homo sapiens, A-427, 2 h): 4220 nM | Avg 2 h Coupled Exchange IC50 [3]: 23 nM
Structure (SMILES): C[C@H]1CNCCN1c1nc(OC[C@@H]2CCCN2C)nc2c(F)c(-c3cccc4sc(N)nc34)c(Cl)cc12 [Example 16, 4-(6-chloro-8-fluoro-4-((S)-2-methylpiperazin-1-yl)-2-(((S)-1-methylpyrrolidin-2-yl)methoxy)quinazolin-7-yl)benzo[d]thiazol-2-amine]

IC50 [1]: 414 nM | IC50 ([2]; Homo sapiens, A-427, 2 h): 3290 nM | Avg 2 h Coupled Exchange IC50 [3]: 87 nM
Structure (SMILES): CN1CCC[C@H]1COc1nc2c(F)c(-c3cccc4sc(N)nc34)c(Cl)cc2c(N2CCNCC2)c1C#N [Example 158, 7-(2-aminobenzo[d]thiazol-4-yl)-6-chloro-8-fluoro-2-(((S)-1-methylpyrrolidin-2-yl)methoxy)-4-(piperazin-1-yl)quinoline-3-carbonitrile]

IC50 [1]: 168 nM | IC50 ([2]; Homo sapiens, A-427, 2 h): 2510 nM | Avg 2 h Coupled Exchange IC50 [3]: 63 nM
Structure (SMILES): CN1CCC[C@H]1COc1nc(N2CCNC3CC32)c2cc(Cl)c(-c3cccc4sc(N)nc34)c(F)c2n1 (stereo partly drawn) [Example 20, 4-(4-(2,5-diazabicyclo[4.1.0]heptan-2-yl)-6-chloro-8-fluoro-2-(((S)-1-methylpyrrolidin-2-yl)methoxy)quinazolin-7-yl)benzo[d]thiazol-2-amine]

IC50 [1]: 476 nM | IC50 ([2]; Homo sapiens, A-427, 2 h): > 25000 nM | Avg 2 h Coupled Exchange IC50 [3]: 361 nM
Structure (SMILES): CN1CCC[C@H]1CCOc1nc(N2CCNCC2)c2cc(Cl)c(-c3cccc4sc(N)nc34)c(F)c2n1 [Example 61, 4-(6-chloro-8-fluoro-2-(2-((S)-1-methyl-pyrrolidin-2-yl)ethoxy)-4-(piperazin-1-yl)quinazolin-7-yl)benzo[d] thiazol-2-amine]

IC50 [1]: 444 nM | IC50 ([2]; Homo sapiens, A-427, 2 h): 18200 nM | Avg 2 h Coupled Exchange IC50 [3]: 176 nM
Structure (SMILES): CN1CC[C@@H]1COc1nc(N2CCNCC2)c2cc(Cl)c(-c3cccc4sc(N)nc34)c(F)c2n1 [Example 58, 4-(6-chloro-8-fluoro-2-(((R)-1-methylazetidin-2-yl)methoxy)-4-(piperazin-1-yl)quinazolin-7-yl)benzo[d] thiazol-2-amine]

The remaining lines, values behind:

Structure (SMILES): Nc1nc2c(-c3c(Cl)cc4c(N5[C@@H]6CC[C@H]5CNC6)nc(OC[C@]56CCCN5C[C@H](F)C6)nc4c3F)ccc(F)c2s1 [Example 123, 4-(4-((1R,5S)-3,8-diazabicyclo[3.2.1]octan-8-yl)-6-chloro-8-fluoro-2-(((2R,7aR)-2-fluorotetrahydro-1H-pyrrolizin-7a(5H)-yl)methoxy)quinazolin-7-yl)-7-fluorobenzo[d]thiazol-2-amine]
IC50 [1]: 5 nM | IC50 ([2]; Homo sapiens, A-427, 2 h): 69 nM | Avg 2 h Coupled Exchange IC50 [3]: 6 nM

Structure (SMILES): Nc1nc2c(-c3c(Cl)cc4c(N5CCNC6CCCC65)nc(OC[C@@]56CCCN5C[C@H](F)C6)nc4c3F)ccc(F)c2s1 (stereo partly drawn) [Example 40, 4-(6-chloro-8-fluoro-2-(((2R,7aS)-2-fluorotetrahydro-1H-pyrrolizin-7a(5H)-yl)methoxy)-4-(octahydro-1H-cyclopenta[b]pyrazin-1-yl)quinazolin-7-yl)-7-fluorobenzo[d] thiazol-2-amine]
IC50 [1]: 51 nM | IC50 ([2]; Homo sapiens, A-427, 2 h): 5610 nM | Avg 2 h Coupled Exchange IC50 [3]: 48 nM

Structure (SMILES): Nc1nc2c(-c3c(Cl)cc4c(N5C6CCNCC5CC6)nc(OC[C@@]56CCCN5C[C@H](F)C6)nc4c3F)ccc(F)c2s1 (single isomer, unassigned) [Example 32]
IC50 [1]: 54 nM | IC50 [2]: 164 nM | Avg 2 h Coupled Exchange IC50 [3]: 16 nM

Structure (SMILES): Nc1nc2c(-c3c(Cl)cc4c(N5CCNCC5)nc(OCC56CCCCN5CCC6)nc4c3F)cccc2s1 (stereo not drawn) [Example 57, 4-(6-chloro-8-fluoro-2-((hexahydro-indolizin-8a(1H)-yl)methoxy)-4-(piperazin-1-yl)quinazolin-7-yl)benzo[d] thiazol-2-amine]
IC50 [1]: 265 nM | IC50 ([2]; Homo sapiens, A-427, 2 h): > 25000 nM | Avg 2 h Coupled Exchange IC50 [3]: 141 nM

Structure (SMILES): CN1C[C@H](F)C[C@H]1COc1nc(N2[C@@H]3CNC[C@H]2COC3)c2cc(Cl)c(-c3ccc(F)c4sc(N)nc34)c(F)c2n1 [Example 125, 4-(4-((1R,5S)-3-oxa-7,9-diazabicyclo[3.3.1]nonan-9-yl)-6-chloro-8-fluoro-2-(((2S,4R)-4-fluoro-1-methylpyrrolidin-2-yl)methoxy)quinazolin-7-yl)-7-fluorobenzo[d]thiazol-2-amine]
IC50 [1]: 6 nM | IC50 ([2]; Homo sapiens, A-427, 2 h): 369 nM | Avg 2 h Coupled Exchange IC50 [3]: 9 nM

Structure (SMILES): Nc1nc2c(-c3c(Cl)cc4c(N5C[C@H]6CC[C@@H](C5)N6)cc(OC[C@@]56CCCN5C[C@H](F)C6)nc4c3F)ccc(F)c2s1 [Example 161, 4-(4-((1R,5S)-3,8-Diazabicyclo[3.2.1]octan-3-yl)-6-chloro-8-fluoro-2-(((2R,7aS)-2-fluorotetrahydro-1H-pyrrolizin-7a(5H)-yl)methoxy)quinolin-7-yl)-7-fluorobenzo[d]thiazol-2-amine]
IC50 [1]: 57 nM | IC50 ([2]; Homo sapiens, A-427, 2 h): 5790 nM | Avg 2 h Coupled Exchange IC50 [3]: 24 nM

Structure (SMILES): C=Cc1cc2c(N3C[C@H]4CC[C@@H](C3)N4)nc(OC[C@@]34CCCN3C[C@H](F)C4)nc2c(F)c1-c1ccc(F)c2sc(N)nc12 [Example 150, 4-(4-((1R,5S)-3,8-diazabicyclo[3.2.1]octan-3-yl)-8-fluoro-2-(((2R,7aS)-2-fluorotetrahydro-1H-pyrrolizin-7a(5H)-yl)methoxy)-6-vinylquinazolin-7-yl)-7-fluorobenzo[d]thiazol-2-amine]
IC50 [1]: 3 nM | IC50 ([2]; Homo sapiens, A-427, 2 h): 11 nM | Avg 2 h Coupled Exchange IC50 [3]: 6 nM

Structure (SMILES): CN1C[C@H](F)C[C@H]1COc1nc(N2C[C@H]3C[C@@H](C2)N3)c2cc(Cl)c(-c3ccc(F)c4sc(N)nc34)c(F)c2n1 [Example 7, 4-(4-((1R,5S)-3,6-diazabicyclo[3.1.1]heptan-3-yl)-6-chloro-8-fluoro-2-(((2S,4R)-4-fluoro-1-methylpyrrolidin-2-yl)methoxy)quinazolin-7-yl)-7-fluorobenzo[d] thiazol-2-amine]
IC50 [1]: 12 nM | IC50 ([2]; Homo sapiens, A-427, 2 h): 531 nM | Avg 2 h Coupled Exchange IC50 [3]: 6 nM

Structure (SMILES): Nc1nc2c(-c3c(Cl)cc4c(N5CCCNC(=O)C5)nc(OC[C@@]56CCCN5C[C@H](F)C6)nc4c3F)ccc(F)c2s1 [Example 4, 4-(7-(2-amino-7-fluorobenzo[d]thiazol-4-yl)-6-chloro-8-fluoro-2-(((2R,7aS)-2-fluorotetrahydro-1H-pyrrolizin-7a(5H)-yl)methoxy)quinazolin-4-yl)-1,4-diazepan-2-one]
IC50 [1]: 10 nM | IC50 ([2]; Homo sapiens, A-427, 2 h): 4900 nM | Avg 2 h Coupled Exchange IC50 [3]: 5 nM

Structure (SMILES): C[C@]1(COc2nc(N3CCNCC3)c3cc(Cl)c(-c4cccc5sc(N)nc45)c(F)c3n2)CCCN1 [Example 74, 4-(6-chloro-8-fluoro-2-(((R)-2-methyl-pyrrolidin-2-yl)methoxy)-4-(piperazin-1-yl)quinazolin-7-yl)benzo[d] thiazol-2-amine]
IC50 [1]: 228 nM | IC50 ([2]; Homo sapiens, A-427, 2 h): > 10000 nM | Avg 2 h Coupled Exchange IC50 [3]: 122 nM

Structure (SMILES): Nc1nc2c(-c3c(Cl)cc4c(N5C6CCNCC5CC6)nc(OC[C@@]56CCCN5C[C@H](F)C6)nc4c3F)ccc(F)c2s1 (single isomer, unassigned) [Example 33]
IC50 [1]: 63 nM | IC50 [2]: 879 nM | Avg 2 h Coupled Exchange IC50 [3]: 10 nM

Structure (SMILES): Nc1nc2c(-c3c(Cl)cc4c(N5CC6CNCC5C6)nc(OC[C@@]56CCCN5C[C@H](F)C6)nc4c3F)ccc(F)c2s1 (single isomer, unassigned) [Example 30]
IC50 [1]: 96 nM | IC50 [2]: 7910 nM | Avg 2 h Coupled Exchange IC50 [3]: 15 nM

Structure (SMILES): CN1CCC[C@H]1COc1nc(N2C[C@@H]3CC[C@H]2CN3)c2cc(Cl)c(-c3cccc4sc(N)nc34)c(F)c2n1 [Example 15, 4-(4-((15,4S)-2,5-diazabicyclo[2.2.2]octan-2-yl)-6-chloro-8-fluoro-2-(((S)-1-methylpyrrolidin-2-yl)methoxy)quinazolin-7-yl)benzo[d]thiazol-2-amine]
IC50 [1]: 21 nM | IC50 ([2]; Homo sapiens, A-427, 2 h): 2300 nM | Avg 2 h Coupled Exchange IC50 [3]: 14 nM
